Test results reported in PubChem BioAssay (NCI).
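Five compound concentrations were applied to cells in 96-well plates for 48 hours; endpoints were derived by simple linear interpolation of the resulting dose-response curve. GI50 is the concentration that inhibits growth by half. TGI: total growth inhibition.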

What was measured:
Assay in all cases: DTP human tumour cell line panel, 48 h
786-0 renal = tested on: 786-0 renal
A549 NSCLC = tested on: A549 NSCLC
CAKI-1 renal = tested on: CAKI-1 renal
CCRF-CEM leukemia = tested on: CCRF-CEM leukemia
HCT-15 colon = tested on: HCT-15 colon
MDA-MB-435 = tested on: MDA-MB-435
NCI-H460 lung = tested on: NCI-H460 lung
SF-295 CNS = tested on: SF-295 CNS
UO-31 renal = tested on: UO-31 renal
SF-539 CNS = tested on: SF-539 CNS

| Structure (SMILES) | TGI (786-0 renal) [µM] | TGI (A549 NSCLC) [µM] | TGI (CAKI-1 renal) [µM] | TGI (CCRF-CEM leukemia) [µM] | TGI (HCT-15 colon) [µM] | TGI (MDA-MB-435) [µM] | TGI (NCI-H460 lung) [µM] | TGI (SF-295 CNS) [µM] | TGI (UO-31 renal) [µM] | TGI (SF-539 CNS) [µM] | GI50 (786-0 renal) [µM] | GI50 (A549 NSCLC) [µM] | GI50 (CAKI-1 renal) [µM] | GI50 (CCRF-CEM leukemia) [µM] | GI50 (HCT-15 colon) [µM] | GI50 (MDA-MB-435) [µM] | GI50 (NCI-H460 lung) [µM] | GI50 (SF-295 CNS) [µM] | GI50 (UO-31 renal) [µM] | GI50 (SF-539 CNS) [µM] |
| --- | --- | --- | --- | --- | --- | --- | --- | --- | --- | --- | --- | --- | --- | --- | --- | --- | --- | --- | --- | --- |
| COc1ccc2c3c1OC1C4(CCC5C(C2)N(CC2CC2)CCC351)OCCO4 (configuration not stated) | > 100 | > 100 | > 100 | > 100 | > 100 | > 100 | > 100 | > 100 | > 100 | – | – | – | – | – | – | – | – | – | – | – |
| Cc1c(-c2cc(-c3ccccc3)n[nH]c2=O)c2ccccc2n1C | > 100 | > 100 | > 100 | > 100 | > 100 | – | > 100 | > 100 | > 100 | > 100 | – | – | – | – | – | – | – | – | – | – |
| O=C1c2ccccc2-c2c1c1ccc([N+](=O)[O-])cc1c(=O)n2CCN1CCOCC1 | > 100 | > 100 | > 100 | > 100 | > 100 | > 100 | > 100 | > 100 | > 100 | – | > 100 | > 100 | 41.3 | 20.1 | > 100 | > 100 | 78.4 | 92 | > 100 | – |
| Nc1ncnc2c1N=CN(Oc1ccccc1)N2 | > 100 | > 100 | > 100 | – | > 100 | – | > 100 | > 100 | – | > 100 | – | – | – | – | – | – | – | – | – | – |
| CC(C)(C)[Si](C)(C)O/N=C\c1cccc(O[Si](C)(C)C(C)(C)C)c1 | 35.1 | 37.4 | 42.2 | 41.7 | 35.7 | – | 32.6 | 31.9 | 29.6 | 46.7 | – | – | – | – | – | – | – | – | – | – |
| CCOc1cc(CCNC)c2c(ccc3ccc(OC)c(O)c32)c1OC | 32.1 | 39.6 | 34 | > 100 | 35.7 | 27.5 | 32.9 | 30.1 | 29.6 | – | – | – | – | – | – | – | – | – | – | – |
| O=C(CC(=O)c1cccc2ccccc12)C(=O)Nc1nccs1 | > 100 | > 100 | > 100 | > 100 | > 100 | – | > 100 | > 100 | > 100 | > 100 | – | – | – | – | – | – | – | – | – | – |
| CC/C(=N/O)C(C)C(=O)CCC(=O)Nc1ccc(Cl)cc1 (configuration not stated) | > 100 | > 100 | > 100 | > 100 | > 100 | – | > 100 | > 100 | > 100 | > 100 | – | – | – | – | – | – | – | – | – | – |
| COc1ccc(C(=O)c2cc(C)c(OC)c(C)c2)c(OC)c1OC(=O)C(Cl)Cl | > 100 | > 100 | > 100 | > 100 | > 100 | – | 3.27 | > 25.1 | > 50.5 | 0.0702 | 0.396 | 0.361 | 0.338 | 0.0386 | 0.0339 | – | 0.0629 | 0.164 | 0.0658 | 0.0238 |
| COc1ccc(/C=C\c2cc(OC)c(OC)c(OC)c2)cc1N/C=C\C(=O)c1c[nH]c2ccccc12 | > 100 | > 100 | > 100 | > 100 | > 100 | – | 20.3 | > 100 | > 100 | < 0.01 | < 0.01 | < 0.01 | < 0.01 | < 0.01 | < 0.01 | – | < 0.01 | < 0.01 | < 0.01 | < 0.01 |
| COc1ccccc1NC(=O)C1=C(C)NC(C)=C(C(=O)Nc2ccccc2OC)C1c1ccc(C2C(C(=O)Nc3ccccc3OC)=C(C)NC(C)=C2C(=O)Nc2ccccc2OC)cc1 | 4.22 | > 60.4 | 11.3 | 5.71 | 7.49 | – | 12.6 | 6.28 | 14.9 | 3.24 | – | – | – | – | – | – | – | – | – | – |
| COc1cc(NC(=O)c2cc3ccccc3cc2O)c(OC)cc1Cl | 9.18 | 7.47 | 3.76 | > 20.5 | 8.4 | – | 4.91 | 4.54 | > 24.9 | 7.15 | 2.86 | 2.46 | – | 2.61 | 1.95 | – | 1.9 | 1.8 | 1.16 | 2.31 |
| NC(=S)N/N=C1/C(=O)N(c2ccccc2)C(=O)C1C(=O)Nc1ccccc1 (configuration not stated) | > 100 | > 100 | > 100 | – | > 100 | – | > 100 | > 100 | > 100 | > 100 | – | – | – | – | – | – | – | – | – | – |
| Clc1ccc2c(NCCNc3nc(N4CCCCC4)nc4ccccc34)ccnc2c1 | 2.78 | 9.87 | – | 45.4 | 3.93 | 3.43 | – | 3.23 | 2.79 | 3.42 | 1.31 | 2.16 | – | 1.99 | 1.26 | 1.74 | – | 1.71 | 1.39 | 1.72 |
| Cc1cccc(/C=N/N=C(\N)NO)n1 | > 100 | > 100 | > 100 | > 100 | – | – | > 100 | > 100 | – | > 100 | – | – | – | – | – | – | – | – | – | – |
| CCCCCCCCCCCc1cc(=O)c2c(O)cccc2o1 | > 100 | > 100 | > 100 | 83.7 | > 100 | – | > 100 | > 100 | > 100 | > 100 | – | – | – | – | – | – | – | – | – | – |
| COC(=O)CCC(=O)Nc1cc(C)ccc1C | > 100 | > 100 | > 100 | > 100 | – | – | > 100 | > 100 | > 100 | > 100 | – | – | – | – | – | – | – | – | – | – |
| CC1=CC[C@@H]2C(=O)C=CC=C[C@H]12.[C-]#[O+].[C-]#[O+].[C-]#[O+].[Fe] | > 100 | > 100 | – | > 100 | > 100 | – | > 100 | – | > 100 | > 100 | > 100 | > 100 | – | > 100 | > 100 | – | > 100 | – | > 100 | > 100 |
| CC(C)(C)c1cc(C#N)c2c(c1)C(=O)OC2(c1ccccc1)c1ccccc1C#N (configuration not stated) | > 100 | > 100 | > 100 | > 100 | > 100 | – | > 100 | > 100 | > 100 | > 100 | – | – | – | – | – | – | – | – | – | – |
